The values below come from patent publication US20250276964A1 (Novartis AG, priority 2021, published 2025).

The target of the test is T1, WIZ (Homo sapiens, UniProt O95785+Q96SW2).
T1 construct: expressed in transfected cells
The experiment in a line: Quantification of WIZ protein levels in HiBit tag fusion protein assay (WIZ HiBit assay in 293T cells). It is filed as cell-based. The conditions noted are these: for Dmax at 25 µM / remaining activity at 25 µM: HEK-293T; for Dmax at 25 µM: read-out: % degradation of WIZ (100-Amax); for remaining activity at 25 µM: read-out: WIZ Amax; for DC50: WIZ HiBit assay in 293T cells, 10-point, 5-fold dilution, highest concentration 25 μM, about 18 hours, read-out: WIZ AC50. In outline:
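293T cells stably carrying single-copy HiBit-WIZ (HSVTK promoter) treated ~18 h at 37 °C with 10-point, 5-fold dilutions, top 25 μM. Lytic HiBit luminescence read; Amax is DMSO-normalised, curve-fitted % WIZ-HiBit remaining at 25 uM.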
(With HiBiT, luminescence reflects the tagged protein that the partner subunit can reach.)

Setting [1] is: DMSO-normalized, curve-fitted percentage of WIZ-HiBit remaining at 25 uM.

SMILES strings stand for the structures.

T1 sequence (O95785 whole entry): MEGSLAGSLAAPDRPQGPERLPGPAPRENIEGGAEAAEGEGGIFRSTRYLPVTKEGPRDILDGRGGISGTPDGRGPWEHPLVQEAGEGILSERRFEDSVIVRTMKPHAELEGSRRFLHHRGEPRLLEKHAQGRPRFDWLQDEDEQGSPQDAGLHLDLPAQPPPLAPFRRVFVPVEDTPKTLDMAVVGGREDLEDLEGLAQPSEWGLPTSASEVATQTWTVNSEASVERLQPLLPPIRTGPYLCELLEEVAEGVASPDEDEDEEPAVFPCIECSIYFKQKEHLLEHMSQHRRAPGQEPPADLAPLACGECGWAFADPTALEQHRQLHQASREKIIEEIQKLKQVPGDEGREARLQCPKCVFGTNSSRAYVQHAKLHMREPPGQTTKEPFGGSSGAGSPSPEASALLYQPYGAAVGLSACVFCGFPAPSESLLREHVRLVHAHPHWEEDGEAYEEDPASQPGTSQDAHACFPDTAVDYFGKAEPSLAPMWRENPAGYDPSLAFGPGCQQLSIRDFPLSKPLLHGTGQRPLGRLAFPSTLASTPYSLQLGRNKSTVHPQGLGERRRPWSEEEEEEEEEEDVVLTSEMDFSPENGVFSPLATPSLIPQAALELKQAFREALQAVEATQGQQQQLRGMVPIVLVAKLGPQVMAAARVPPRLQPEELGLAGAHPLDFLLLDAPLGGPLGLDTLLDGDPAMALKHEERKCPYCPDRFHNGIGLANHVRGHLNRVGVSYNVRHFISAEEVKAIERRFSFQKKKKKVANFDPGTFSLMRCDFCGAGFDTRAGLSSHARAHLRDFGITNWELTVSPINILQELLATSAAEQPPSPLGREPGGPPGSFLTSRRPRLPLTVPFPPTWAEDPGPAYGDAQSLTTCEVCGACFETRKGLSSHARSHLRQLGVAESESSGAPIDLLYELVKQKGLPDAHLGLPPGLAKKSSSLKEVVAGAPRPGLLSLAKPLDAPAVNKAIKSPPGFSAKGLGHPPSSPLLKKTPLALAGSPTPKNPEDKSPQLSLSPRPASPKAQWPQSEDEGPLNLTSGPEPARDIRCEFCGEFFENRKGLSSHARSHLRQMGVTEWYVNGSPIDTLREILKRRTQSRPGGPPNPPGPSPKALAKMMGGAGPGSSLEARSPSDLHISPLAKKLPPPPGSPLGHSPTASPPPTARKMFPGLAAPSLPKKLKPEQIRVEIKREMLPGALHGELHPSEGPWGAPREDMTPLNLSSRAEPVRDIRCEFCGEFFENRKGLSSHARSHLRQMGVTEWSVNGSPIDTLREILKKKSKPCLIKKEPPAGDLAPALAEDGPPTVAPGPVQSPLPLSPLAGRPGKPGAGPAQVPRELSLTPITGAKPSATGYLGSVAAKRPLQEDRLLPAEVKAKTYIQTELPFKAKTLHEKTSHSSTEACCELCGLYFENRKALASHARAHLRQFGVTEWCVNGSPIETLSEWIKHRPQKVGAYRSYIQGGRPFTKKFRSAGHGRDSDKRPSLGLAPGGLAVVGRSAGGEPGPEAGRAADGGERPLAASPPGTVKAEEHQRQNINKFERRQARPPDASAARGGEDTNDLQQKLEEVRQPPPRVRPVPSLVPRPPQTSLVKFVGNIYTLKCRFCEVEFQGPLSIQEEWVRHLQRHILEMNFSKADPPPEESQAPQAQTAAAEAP
T1 sequence (Q96SW2 whole entry): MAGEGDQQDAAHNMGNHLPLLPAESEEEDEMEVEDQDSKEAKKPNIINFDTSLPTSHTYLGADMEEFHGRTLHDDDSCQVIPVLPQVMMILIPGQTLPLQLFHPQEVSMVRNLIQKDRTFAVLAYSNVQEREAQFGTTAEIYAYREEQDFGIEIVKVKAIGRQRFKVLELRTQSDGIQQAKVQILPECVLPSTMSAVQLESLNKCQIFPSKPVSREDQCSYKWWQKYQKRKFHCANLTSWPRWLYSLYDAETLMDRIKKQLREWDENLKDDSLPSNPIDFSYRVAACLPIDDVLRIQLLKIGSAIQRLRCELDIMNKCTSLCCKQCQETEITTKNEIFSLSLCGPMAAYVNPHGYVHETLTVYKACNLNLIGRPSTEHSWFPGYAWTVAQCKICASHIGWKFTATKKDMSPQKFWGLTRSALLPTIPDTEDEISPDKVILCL
T1 sequence (Q16531 whole entry partner): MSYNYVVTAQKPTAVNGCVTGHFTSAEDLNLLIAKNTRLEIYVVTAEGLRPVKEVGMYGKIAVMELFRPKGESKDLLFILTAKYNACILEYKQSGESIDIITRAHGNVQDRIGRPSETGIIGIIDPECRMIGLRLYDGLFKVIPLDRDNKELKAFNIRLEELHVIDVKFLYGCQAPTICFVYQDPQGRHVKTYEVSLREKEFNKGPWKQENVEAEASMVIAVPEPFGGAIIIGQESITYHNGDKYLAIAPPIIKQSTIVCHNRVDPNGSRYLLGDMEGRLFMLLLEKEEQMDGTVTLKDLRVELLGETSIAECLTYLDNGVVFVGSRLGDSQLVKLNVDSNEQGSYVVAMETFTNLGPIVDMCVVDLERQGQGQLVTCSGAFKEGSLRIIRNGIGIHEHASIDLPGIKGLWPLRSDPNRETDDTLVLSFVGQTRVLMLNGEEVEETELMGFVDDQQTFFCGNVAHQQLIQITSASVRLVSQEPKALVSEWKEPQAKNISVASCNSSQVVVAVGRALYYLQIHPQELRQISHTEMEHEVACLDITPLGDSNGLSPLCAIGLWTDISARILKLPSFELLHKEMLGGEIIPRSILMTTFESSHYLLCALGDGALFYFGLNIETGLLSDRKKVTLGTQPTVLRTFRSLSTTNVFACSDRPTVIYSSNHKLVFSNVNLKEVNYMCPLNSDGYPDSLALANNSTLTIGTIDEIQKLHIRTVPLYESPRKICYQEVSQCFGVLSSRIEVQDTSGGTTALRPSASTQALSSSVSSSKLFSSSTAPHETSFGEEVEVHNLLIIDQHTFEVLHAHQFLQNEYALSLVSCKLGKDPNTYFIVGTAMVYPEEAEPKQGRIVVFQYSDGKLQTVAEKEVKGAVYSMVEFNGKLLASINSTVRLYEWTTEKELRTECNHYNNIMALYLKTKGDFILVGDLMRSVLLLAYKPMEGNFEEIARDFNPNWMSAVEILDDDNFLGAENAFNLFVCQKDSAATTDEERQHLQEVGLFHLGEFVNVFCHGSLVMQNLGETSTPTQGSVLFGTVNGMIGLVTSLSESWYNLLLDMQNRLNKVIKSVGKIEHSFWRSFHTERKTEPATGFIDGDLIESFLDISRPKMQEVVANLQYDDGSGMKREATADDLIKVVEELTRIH

For the compound `COC[C@H]1CN(Cc2ccc3onc(N4CCC(=O)NC4=O)c3c2)CCN1CC(C)C` [Example 114, (R)-1-(5-((4-isobutyl-3-(methoxymethyl)piperazin-1-yl)methyl)benzo[d]isoxazol-3-yl)dihydropyrimidine-2,4(1H,3H)-dione], the DC50 came out at 115 nM. The Dmax at 25 µM (100 minus Amax at 25 uM) turned out to be 85%. Further, the remaining activity at 25 µM under setting [1] was found to be 15%.

In the case of `CC(C)(C)OC(=O)N1[C@@H]2CC[C@H]1CC(Cc1ccc3onc(N4CCC(=O)NC4=O)c3c1)C2` (single isomer, unassigned) [Example 54], the DC50 turned out to be 196 nM. For the setting “100 minus Amax at 25 uM”, the “% degradation of WIZ (100-Amax)” value was determined as 92%. Moreover, the “WIZ Amax” value under setting [1] was 8%.

Regarding `CC(C)N1CCN(Cc2ccc3onc(N4CCC(=O)NC4=O)c3c2)[C@H](C)C1` [Example 69, (R)-1-(5-((4-isopropyl-2-methylpiperazin-1-yl)methyl)benzo[d]isoxazol-3-yl)dihydropyrimidine-2,4(1H,3H)-dione], the DC50 came to 45 nM. Where the note is “100 minus Amax at 25 uM”, the Dmax at 25 µM was 83%. The remaining activity at 25 µM under setting [1] was 17%.

For `C[C@@H]1CN(C2CCOCC2)CCN1Cc1ccc2onc(N3CCC(=O)NC3=O)c2c1` [Example 78, (R)-1-(5-((2-methyl-4-(tetrahydro-2H-pyran-4-yl)piperazin-1-yl)methyl)benzo[d]isoxazol-3-yl)dihydropyrimidine-2,4(1H,3H)-dione], the DC50 worked out at 37 nM. Also, the Dmax at 25 µM (100 minus Amax at 25 uM) was found to be 80%. The remaining activity at 25 µM under setting [1] worked out at 20%.

For the compound `CC(c1ccc2onc(N3CCC(=O)NC3=O)c2c1)N1CCN(C)CC1` (stereo not drawn) [Example 127, 1-(5-(1-(4-methylpiperazin-1-yl)ethyl)benzo[d]isoxazol-3-yl)dihydropyrimidine-2,4(1H,3H)-dione], the DC50 amounted to 149 nM. Besides, the Dmax at 25 µM (100 minus Amax at 25 uM) came to 91%. The remaining activity at 25 µM under setting [1] is 9%.

As to `CN1CCN(Cc2ccc3onc(N4CCC(=O)NC4=O)c3c2)CC1` [Example 22, 1-(5-((4-methylpiperazin-1-yl)methyl)benzo[d]isoxazol-3-yl)dihydropyrimidine-2,4(1H,3H)-dione], the DC50 was 10 nM. Besides, the Dmax at 25 µM (100 minus Amax at 25 uM) is 91%. In addition, the remaining activity at 25 µM under setting [1] amounted to 9%.

Regarding `CC(C)(C)OC(=O)N1C[C@@H]2C[C@H]1CN2Cc1ccc2onc(N3CCC(=O)NC3=O)c2c1` [Example 93, tert-butyl (1S,4S)-5-((3-(2,4-dioxotetrahydropyrimidin-1(2H)-yl)benzo[d]isoxazol-5-yl)methyl)-2,5-diazabicyclo[2.2.1]heptane-2-carboxylate], the DC50 amounted to 2180 nM. Where the note is “100 minus Amax at 25 uM”, the Dmax at 25 µM amounted to 61%. The remaining activity at 25 µM under setting [1] is 39%.

Take `CC(=O)N1CCN(Cc2ccc3onc(N4CCC(=O)NC4=O)c3c2)[C@H](C)C1` [Example 64, (R)-1-(5-((4-acetyl-2-methylpiperazin-1-yl)methyl)benzo[d]isoxazol-3-yl)dihydropyrimidine-2,4(1H,3H)-dione]: the DC50 came out at 229 nM. Moreover, the Dmax at 25 µM (100 minus Amax at 25 uM) is 75%. The remaining activity at 25 µM under setting [1] came to 25%.

As to `CC(C)S(=O)(=O)N1CCC(Cc2ccc3onc(N4CCC(=O)NC4=O)c3c2)CC1` [Example 14, 1-(5-((1-(isopropylsulfonyl)piperidin-4-yl)methyl)benzo[d]isoxazol-3-yl)dihydropyrimidine-2,4(1H,3H)-dione], the DC50 was found to be 14 nM. Besides, the Dmax at 25 µM (100 minus Amax at 25 uM) turned out to be 90%. The remaining activity at 25 µM under setting [1] is 10%.

Regarding `O=C1CCN(c2noc3ccc(CN4CCN5[C@@H](CCS5(=O)=O)C4)cc23)C(=O)N1` [Example 112, (S)-1-(5-((1,1-dioxidohexahydro-5H-isothiazolo[2,3-a]pyrazin-5-yl)methyl)benzo[d]isoxazol-3-yl)dihydropyrimidine-2,4(1H,3H)-dione], the DC50 was found to be 45 nM. Besides, the Dmax at 25 µM (100 minus Amax at 25 uM) is 87%. For the same compound, under setting [1], the remaining activity at 25 µM was determined as 13%.

With `CN1CC2CCC1CN2Cc1ccc2onc(N3CCC(=O)NC3=O)c2c1` (single isomer, unassigned) [Example 123, 1-(5-((5-methyl-2,5-diazabicyclo[2.2.2]octan-2-yl)methyl)benzo[d]isoxazol-3-yl)dihydropyrimidine-2,4(1H,3H)-dione], the DC50 is 59 nM. Moreover, the Dmax at 25 µM (100 minus Amax at 25 uM) is 89%. Moreover, the remaining activity at 25 µM under setting [1] turned out to be 11%.

As to `CC(C)[C@H]1CN(Cc2ccc3onc(N4CCC(=O)NC4=O)c3c2)CCN1C` [Example 37, (S)-1-(5-((3-isopropyl-4-methylpiperazin-1-yl)methyl)benzo[d]isoxazol-3-yl)dihydropyrimidine-2,4(1H,3H)-dione], the DC50 came to 260 nM. In addition, the Dmax at 25 µM (100 minus Amax at 25 uM) was determined as 80%. For the same compound, the remaining activity at 25 µM under setting [1] turned out to be 20%.

On to `CC(C)N1CCN(Cc2ccc3onc(N4CCC(=O)NC4=O)c3c2)CC1` [Example 79, 1-(5-((4-isopropylpiperazin-1-yl)methyl)benzo[d]isoxazol-3-yl)dihydropyrimidine-2,4(1H,3H)-dione], for which the DC50 was 16 nM. The Dmax at 25 µM (100 minus Amax at 25 uM) worked out at 92%. The remaining activity at 25 µM under setting [1] was found to be 8%.

In the case of `CC(C)CN1CCN(Cc2ccc3onc(N4CCC(=O)NC4=O)c3c2)CC1=O` [Example 113, 1-(5-((4-isobutyl-3-oxopiperazin-1-yl)methyl)benzo[d]isoxazol-3-yl)dihydropyrimidine-2,4(1H,3H)-dione], the DC50 turned out to be 256 nM. The Dmax at 25 µM (100 minus Amax at 25 uM) was 66%. Under setting [1], the remaining activity at 25 µM stood at 34%.

For the compound `O=C1CCN(c2noc3ccc(CN4CCN(CC5CCOCC5)[C@@H](C(F)F)C4)cc23)C(=O)N1` [Example 115, (R)-1-(5-((3-(difluoromethyl)-4-((tetrahydro-2H-pyran-4-yl)methyl)piperazin-1-yl)methyl)benzo[d]isoxazol-3-yl)dihydropyrimidine-2,4(1H,3H)-dione], the DC50 turned out to be 53 nM. The Dmax at 25 µM (100 minus Amax at 25 uM) came out at 78%. The remaining activity at 25 µM under setting [1] was 22%.

On to `C[C@H]1CN(Cc2ccc3onc(N4CCC(=O)NC4=O)c3c2)[C@@H](C)CN1C` [Example 106, 1-(5-(((2S,5S)-2,4,5-trimethylpiperazin-1-yl)methyl)benzo[d]isoxazol-3-yl)dihydropyrimidine-2,4(1H,3H)-dione], for which the DC50 worked out at 109 nM. Moreover, for the setting “100 minus Amax at 25 uM”, the Dmax at 25 µM came out at 86%. For the same compound, the remaining activity at 25 µM under setting [1] amounted to 14%.

Take `O=C1CCN(c2noc3ccc(CN4C[C@@H]5C[C@H]4CN5CC4CCOCC4)cc23)C(=O)N1` [Example 95, 1-(5-(((1S,4S)-5-((tetrahydro-2H-pyran-4-yl)methyl)-2,5-diazabicyclo[2.2.1]heptan-2-yl)methyl)benzo[d]isoxazol-3-yl)dihydropyrimidine-2,4(1H,3H)-dione]: the DC50 came out at 188 nM. The Dmax at 25 µM (100 minus Amax at 25 uM) was determined as 82%. The remaining activity at 25 µM under setting [1] was 18%.

Take `CC(C)CN1CCC(Cc2ccc3onc(N4CCC(=O)NC4=O)c3c2)CC1` [Example 5, 1-(5-((1-isobutylpiperidin-4-yl)methyl)benzo[d]isoxazol-3-yl)dihydropyrimidine-2,4(1H,3H)-dione]: the DC50 amounted to 14 nM. For the setting “100 minus Amax at 25 uM”, the Dmax at 25 µM came to 91%. Besides, under setting [1], the remaining activity at 25 µM was found to be 9%.

Regarding `CC(C)(C)OC(=O)N1CCC(Cc2ccc3onc(N4CCC(=O)NC4=O)c3c2)CC1` [Example 1a, tert-butyl 4-((3-(2,4-dioxotetrahydropyrimidin-1(2H)-yl)benzo[d]isoxazol-5-yl)methyl)piperidine-1-carboxylate], the DC50 is 160 nM. The Dmax at 25 µM (100 minus Amax at 25 uM) is 85%. Further, under setting [1], the remaining activity at 25 µM amounted to 15%.

For `O=C1CCN(c2noc3ccc(CC4CCN(CCC5CCCCC5)CC4)cc23)C(=O)N1` [Example 11, 1-(5-((1-(2-cyclohexylethyl)piperidin-4-yl)methyl)benzo[d]isoxazol-3-yl)dihydropyrimidine-2,4(1H,3H)-dione], the DC50 is 11 nM. Moreover, the Dmax at 25 µM (100 minus Amax at 25 uM) is 90%. In addition, the remaining activity at 25 µM under setting [1] was determined as 10%.

With `O=C1CCN(c2noc3ccc(CC4CCN(CC5CCC(F)(F)CC5)CC4)cc23)C(=O)N1` [Example 2, 1-(5-((1-((4,4-difluorocyclohexyl)methyl)piperidin-4-yl)methyl)benzo[d]isoxazol-3-yl)dihydropyrimidine-2,4(1H,3H)-dione], the DC50 was found to be 1.2 nM. In addition, the Dmax at 25 µM (100 minus Amax at 25 uM) is 92%. Besides, the remaining activity at 25 µM under setting [1] worked out at 8%.

As to `O=C1CCN(c2noc3ccc(CN4CCN(C5CCOCC5)CC4)cc23)C(=O)N1` [Example 81, 1-(5-((4-(tetrahydro-2H-pyran-4-yl)piperazin-1-yl)methyl)benzo[d]isoxazol-3-yl)dihydropyrimidine-2,4(1H,3H)-dione], the DC50 turned out to be 26 nM. Also, the Dmax at 25 µM (100 minus Amax at 25 uM) amounted to 90%. Under setting [1], the remaining activity at 25 µM was found to be 10%.

Turning to `Cc1ccccc1CN1CCC(Cc2ccc3onc(N4CCC(=O)NC4=O)c3c2)CC1` [Example 12, 1-(5-((1-(2-methylbenzyl)piperidin-4-yl)methyl)benzo[d]isoxazol-3-yl)dihydropyrimidine-2,4(1H,3H)-dione], the DC50 came to 44 nM. Also, where the note is “100 minus Amax at 25 uM”, the Dmax at 25 µM was found to be 90%. In addition, under setting [1], the remaining activity at 25 µM was 10%.

Regarding `O=C1CCN(c2noc3ccc(CC4CCNC4)cc23)C(=O)N1` (stereo not drawn) [Example 48, 1-(5-(pyrrolidin-3-ylmethyl)benzo[d]isoxazol-3-yl)dihydropyrimidine-2,4(1H,3H)-dione], the DC50 worked out at 1160 nM. Further, for the setting “100 minus Amax at 25 uM”, the Dmax at 25 µM turned out to be 77%. In addition, the remaining activity at 25 µM under setting [1] turned out to be 23%.
